Test results: patent publication US11306078B2, “Piperidine CXCR7 receptor modulators” (IDORSIA PHARMACEUTICALS LTD., priority 2016, dated 2022)

Target: human chemokine receptor CXCR7 (Homo sapiens (Human), UniProt P25106)
Assay: Tango CXCR7-bla U2OS beta-arrestin recruitment assay (beta-lactamase reporter, FRET), antagonism of CXCL12/SDF1-α;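 further: compounds preincubated 15 min before CXCL12 addition, then 22 h at 37 °C, FRET emission ratio read with CCF4-AM substrate after 2 h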
Type: cell-based
Conditions: antagonistic effect on CXCR7; Tango CXCR7-bla U2OS cells, CXCL12/SDF1-α at its EC80

human chemokine receptor CXCR7, sequence (P25106 whole entry): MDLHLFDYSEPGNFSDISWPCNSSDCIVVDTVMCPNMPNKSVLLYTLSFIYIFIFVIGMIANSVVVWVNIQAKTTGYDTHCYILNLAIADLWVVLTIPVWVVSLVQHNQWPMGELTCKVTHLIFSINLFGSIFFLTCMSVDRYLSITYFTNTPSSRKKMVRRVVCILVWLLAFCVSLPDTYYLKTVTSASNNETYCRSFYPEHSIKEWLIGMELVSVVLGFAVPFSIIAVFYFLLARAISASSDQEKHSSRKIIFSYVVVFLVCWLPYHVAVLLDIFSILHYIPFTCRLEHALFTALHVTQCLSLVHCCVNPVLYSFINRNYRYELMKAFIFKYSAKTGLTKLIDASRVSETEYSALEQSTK

Compound | IC50 [nM]
O=C(N[C@@H]1CCN(C2CCCCC2)C[C@H]1C(=O)N[C@H]1C[C@@H]1c1ccccc1)c1cc(-c2c(F)cc(F)cc2F)on1 (single isomer, unassigned) [Example 1.046a] | 474
C[C@@H](NC(=O)[C@H]1CN(C2CCC2)CC[C@@H]1NC(=O)c1cc(-c2ccc(F)cc2F)on1)c1ncccc1F [Example 4.098a] | 12
C[C@@H](NC(=O)[C@@H]1CN(C2CCCCC2)CC[C@H]1NC(=O)c1cn(-c2ccc(F)cc2F)nn1)c1cnccn1 (relative stereo) [Example 1.127, (3R*,4R*)-1-Cyclohexyl-4-{[1-(2,4-difluoro-phenyl)-1H-[1,2,3]triazole-4-carbonyl]-amino}-piperidine-3-carboxylic acid ((R)-1-pyrazin-2-yl-ethyl)-amide] | 360
O=C(N[C@H]1CCN(CC2CC2)C[C@@H]1C(=O)NC1(c2ncccn2)CC1)c1ncc(-c2ccc(F)cc2F)o1 [Example 7.011, (3S,4S)-1-Cyclopropylmethyl-4-{[5-(2,4-difluoro-phenyl)-oxazole-2-carbonyl]-amino}-piperidine-3-carboxylic acid (1-pyrimidin-2-yl-cyclopropyl)-amide] | 78
O=C(N[C@H]1CCN(CC2CC2)C[C@@H]1C(=O)NC1(c2ncccn2)CC1)c1nc(-c2ccc(F)cc2F)co1 [Example 7.01] | 60
O=C(N[C@@H]1CCN(CC2CC2)C[C@H]1C(=O)NC1(c2ncccn2)CC1)c1cc(-c2ccc(Cl)cc2Cl)on1 (racemic) [Example 1.189, rac-(3R*,4R*)-1-Cyclopropylmethyl-4-{[5-(2,4-dichloro-phenyl)-isoxazole-3-carbonyl]-amino}-piperidine-3-carboxylic acid (1-pyrimidin-2-yl-cyclopropyl)-amide] | 36
O=C(N[C@@H]1CCN(C2CCCCC2)C[C@H]1C(=O)N1CCOCC1)c1cc(-c2ccc(F)cc2F)on1 (racemic) [Example 1.016, rac-5-(2,4-Difluoro-phenyl)-isoxazole-3-carboxylic acid [(3R*,4R*)-1-cyclohexyl-3-(morpholine-4-carbonyl)-piperidin-4-yl]-amide] | 275
CN(C)C(=O)[C@@H]1CN(C2CCCC2)CC[C@H]1NC(=O)c1cc(-c2c(F)cc(F)cc2F)on1 (racemic) [Example 1.099, rac-(3R*,4R*)-1-Cyclopentyl-4-{[5-(2,4,6-trifluoro-phenyl)-isoxazole-3-carbonyl]-amino}-piperidine-3-carboxylic acid dimethylamide] | 131
O=C(N[C@@H]1CCN(C2CCC2)C[C@H]1C(=O)NCC1(c2ccc(Cl)cc2)CC1)c1cc(-c2ccc(F)cc2F)on1 [Example 4.092] | 126
O=C(N[C@@H]1CCN(C2CCCCC2)C[C@H]1C(=O)NC1(c2ccccn2)CC1)c1cn(-c2ccc(F)cc2F)nn1 (single isomer, unassigned) [Example 1.165b, (3R*,4R*)-1-Cyclohexyl-4-{[1-(2,4-difluoro-phenyl)-1H-[1,2,3]triazole-4-carbonyl]-amino}-piperidine-3-carboxylic acid (1-pyridin-2-yl-cyclopropyl)-amide] | 537
CC(NC(=O)[C@@H]1CN(C2CCCCC2)CC[C@H]1NC(=O)c1cc(-c2ccc(F)cc2F)on1)c1ncc(F)cc1F (relative stereo) [Example 1.086, (3R*,4R*)-1-Cyclohexyl-4-{[5-(2,4-difluoro-phenyl)-isoxazole-3-carbonyl]-amino}-piperidine-3-carboxylic acid [(1RS)-1-(3,5-difluoro-pyridin-2-yl)-ethyl]-amide] | 154
CC(NC(=O)[C@H]1CN(C2CCCCC2)CC[C@@H]1NC(=O)c1cc(-c2ccc(F)cc2F)on1)c1ncon1 (stereo partly shown) [Example 4.007] | 52
C[C@@H](NC(=O)[C@@H]1CN(C2CCCCC2)CC[C@H]1NC(=O)c1cc(-c2c(F)cc(F)cc2F)on1)c1ccccn1 (single isomer, unassigned) [Example 1.121a, (3R*,4R*)-1-Cyclohexyl-4-{[5-(2,4,6-trifluoro-phenyl)-isoxazole-3-carbonyl]-amino}-piperidine-3-carboxylic acid ((R)-1-pyridin-2-yl-ethyl)-amide] | 742
CN(C)C(=O)[C@@H]1CN(CC2(C)CC2)CC[C@H]1NC(=O)c1cc(-c2ccc(F)cc2F)on1 [Example 2.034] | 87
CC(C)CN1CC[C@H](NC(=O)c2cc(-c3ccc(F)cc3F)on2)[C@@H](C(=O)NC2(c3ncccn3)CC2)C1 [Example 2.07] | 11
CC(NC(=O)[C@@H]1CN(CC2CC2)CC[C@H]1NC(=O)c1cc(-c2ccc(F)cc2F)on1)c1ncccn1 (stereo partly shown) [Example 4.080b] | 15
CC(NC(=O)[C@@H]1CN(C2CCCCC2)CC[C@H]1NC(=O)c1cc(-c2ccc(F)cc2F)on1)c1ccncn1 (relative stereo) [Example 1.063, (3R*,4R*)-1-Cyclohexyl-4-{[5-(2,4-difluoro-phenyl)-isoxazole-3-carbonyl]-amino}-piperidine-3-carboxylic acid ((1RS)-1-(pyrimidin-4-yl)-ethyl)-amide] | 107
O=C(N[C@H]1CCN(CC2CC2)C[C@@H]1C(=O)NC1(c2ncccc2F)CC1)c1cc(-c2ccc(F)cc2F)on1 [Example 4.054] | 1
O=C(N[C@H]1CCN(C2CCCC2)C[C@@H]1C(=O)NC1(c2ccncc2)CC1)c1cc(-c2ccc(F)cc2F)on1 [Example 4.026] | 15

Compound | IC50 [nM]
O=C(NC1CCN(C2CCCC2)CC1C(=O)NC1(c2cccc[n+]2[O-])CC1)c1cc(-c2ccc(F)cc2F)on1 (stereo not shown) [Example 2.062] | 23
O=C(N[C@@H]1CCN(C2CCCCC2)C[C@H]1C(=O)NCCF)c1cc(-c2ccc(F)cc2F)on1 (racemic) [Example 1.011, rac-(3R*,4R*)-1-Cyclohexyl-4-{[5-(2,4-difluoro-phenyl)-isoxazole-3-carbonyl]-amino}-piperidine-3-carboxylic acid (2-fluoro-ethyl)-amide] | 282
O=C(N[C@H]1CCN(Cc2ccccc2)C[C@@H]1C(=O)NC1(c2ncccn2)CC1)c1cc(-c2ccc(F)cc2F)on1 [Example 2.071] | 8
CN(C)C(=O)[C@@H]1CN(C2CCCCC2)CC[C@H]1NC(=O)c1nnc(-c2ccc(F)cc2F)o1 (single isomer, unassigned) [Example 3.003a, (3R*,4R*)-1-Cyclohexyl-4-{[5-(2,4-difluoro-phenyl)-[1,3,4]oxadiazole-2-carbonyl]-amino}-piperidine-3-carboxylic acid dimethylamide] | 771
C[C@@H](NC(=O)[C@@H]1CN(C2CCCCC2)CC[C@H]1NC(=O)c1cc(-c2ccc(F)cc2F)on1)c1ncc(F)cn1 (relative stereo) [Example 1.094, (3R*,4R*)-1-Cyclohexyl-4-{[5-(2,4-difluoro-phenyl)-isoxazole-3-carbonyl]-amino}-piperidine-3-carboxylic acid [(R)-1-(5-fluoro-pyrimidin-2-yl)-ethyl]-amide] | 100
O=C(N[C@H]1CCN(C2CCCC2)C[C@@H]1C(=O)NC1(c2cccc[n+]2[O-])CC1)c1cc(-c2ccc(F)cc2F)on1 [Example 2.062b] | 14
(3R*,4R*)-1-Cyclohexyl-4-{[1-(2,4-difluoro-phenyl)-1H-[1,2,3]triazole-4-carbonyl]-amino}-piperidine-3-carboxylic acid ((1R*,2S*)-2-phenyl-cyclopropyl)-amide and (3R*,4R*)-1-Cyclohexyl-4-{[1-(2,4-difluoro-phenyl)-1H-[1,2,3]triazole-4-carbonyl]-amino}-piperidine-3-carboxylic acid ((1S*,2R*)-2-phenyl-cyclopropyl)-amide [Example 1.145] | 363
CCN(CC)C(=O)[C@H]1CN(CC2CC2)CC[C@@H]1NC(=O)c1cc(-c2ccc(F)cc2F)on1 [Example 4.066] | 320
C[C@@H](NC(=O)[C@@H]1CN(CC2CC2)CC[C@H]1NC(=O)c1cn(-c2ccc(F)cc2F)nn1)C1CCC1 (relative stereo) [Example 1.136, (3R*,4R*)-1-Cyclopropylmethyl-4-{[1-(2,4-difluoro-phenyl)-1H-[1,2,3]triazole-4-carbonyl]-amino}-piperidine-3-carboxylic acid ((R)-1-cyclobutyl-ethyl)-amide] | 202
CN(C)C(=O)[C@@H]1CN(C2CCC2(C)C)CC[C@H]1NC(=O)c1cc(-c2ccc(F)cc2F)on1 (stereo partly shown) [Example 2.017] | 73
O=C(N[C@H]1CCN(CC2CC2)C[C@@H]1C(=O)NC1(c2ccncc2)CC1)c1cc(-c2ccc(F)cc2F)on1 [Example 4.027] | 8
CN(CCc1ccccc1)C(=O)[C@@H]1CNCC[C@H]1NC(=O)c1cc(-c2ccc(F)cc2F)on1 [Example 2.058] | 347
Cc1ccc(CCNC(=O)[C@@H]2CN(C3CCCCC3)CC[C@H]2NC(=O)c2cc(-c3ccc(F)cc3F)on2)cc1 (racemic) [Example 1.062, rac-(3R*,4R*)-1-Cyclohexyl-4-{[5-(2,4-difluoro-phenyl)-isoxazole-3-carbonyl]-amino}-piperidine-3-carboxylic acid (2-p-tolyl-ethyl)-amide] | 16
CN(C)C(=O)[C@@H]1CN(CCC2CC2)CC[C@H]1NC(=O)c1cc(-c2ccc(F)cc2F)on1 [Example 2.039] | 83
CN(C)C(=O)[C@@H]1CN(C2CCC(F)CC2)CC[C@H]1NC(=O)c1cc(-c2ccc(F)cc2F)on1 (stereo partly shown) [Example 2.026] | 249
O=C(N[C@H]1CCN(C2CC3(CC3)C2)C[C@@H]1C(=O)NC1(c2ncccn2)CC1)c1cc(-c2ccc(F)cc2F)on1 [Example 2.103] | 4
Cc1ccccc1-c1cc(C(=O)N[C@H]2CCN(CC3CC3)C[C@@H]2C(=O)NC2(c3ncccn3)CC2)no1 [Example 7.002, (3S,4S)-1-Cyclopropylmethyl-4-[(5-o-tolyl-isoxazole-3-carbonyl)-amino]-piperidine-3-carboxylic acid (1-pyrimidin-2-yl-cyclopropyl)-amide] | 308
CN(C)C(=O)[C@@H]1CN(C2CC3(CCC3)C2)CC[C@H]1NC(=O)c1cc(-c2ccc(F)cc2F)on1 [Example 2.025] | 435
